{"source": "patent US9139615B2", "about": "“High-affinity, dimeric inhibitors of PSD-95 as efficient neuroprotectants against ischemic brain damage and for treatment of pain” (University of Copenhagen, priority 2011, dated 2015)", "target": "T1, PDZ1-2 of PSD-95 (Homo sapiens, UniProt P78352)", "T1 construct": "made in house; host or cells: E. coli BL21-DE3 pLysS", "T1 sequence (P78352 with tags, fused parts or gaps)": "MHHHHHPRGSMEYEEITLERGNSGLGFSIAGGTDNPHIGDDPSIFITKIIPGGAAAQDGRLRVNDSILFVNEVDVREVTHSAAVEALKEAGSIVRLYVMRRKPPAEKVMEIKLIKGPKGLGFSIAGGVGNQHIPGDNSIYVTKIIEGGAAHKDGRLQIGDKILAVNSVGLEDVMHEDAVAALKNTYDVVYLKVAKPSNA", "assay": "Fluorescence polarization (FP) assay, affinity for PDZ1-2 of PSD-95", "assay_type": "binding", "conditions": "Ki ± SEM, affinity towards PDZ1-2 of PSD-95, heterologous competition, probe AB143 0.5 nM, PDZ1-2 […], TBS pH 7.4; IC50 converted to Ki", "from_the_text": "VI.i. Fluorescence Polarization (FP) Assay: as described below, Example 1 provides a convenient and reliable way to monitor and evaluate the inhibitor properties of a PSD-95 inhibitor of the invention. The FP assay allows a wide range of peptide analogues to be tested and compared with respect to their interaction with PDZ domains, and their specificity with respect to the tandem PDZ1-2 of PSD-95. PDZ1-2 is expressed using standard recombinant DNA technology known to those skilled in the art.\nMore specifically, the assay is based on a heterologous competition binding assay, where the affinity measured as IC50 of a given (non-fluorescent) peptide analogue for a PDZ domain is measured in the presence of a fixed concentration of a fluorescent labeled dimeric ligand (AB143; FIG. 4). Determined IC50 values are converted to Ki values (Nikolovska-Coleska et al, Anal. Biochem. 2004, 332, p. 261-273). The 5-FAM fluorophore may be attached to the dimeric ligand by coupling with HATU or HBTU.\nThe cDNA coding for PSD-95 PDZ1-2 tandem (corresponding to residues 61-249 in the human full-length PSD95α without exon 4b) were amplified by inverted PCR and cloned in a modified His-tagged pRSET vector (Invitrogen, Carlsbad, Calif., USA). The encoded PDZ1-2 peptide further comprised the sequence, […] (SEQ ID NO: 14), which was used as a tag for purification (His-tag), and the DNA coding sequences and encoded proteins are designated as follows: HIS-PDZ1-2 DNA [SEQ ID NO: 1] encoding HIS-PDZ1-2 protein [SEQ ID NO: 2]. Competent E. coli bacteria (BL21-DE3, pLysS) were transformed with PDZ1-2 expressing construct and grown overnight on agar plates containing ampicillin (100 μg/mL) and chloramphenicol (35 μg/mL) at 37° C. Colonies were picked and used to inoculate bacterial cultures (LB medium with 50 μg/mL ampicillin). These were shaken while being incubated at 37° C. until A600 of the culture reached 0.45, at which point 1 mM isopropyl β-D-1-thiogalactopyranoside was added. Induced cultures were incubated over night at 30° C. (PDZ1-2). Cells were harvested by spinning at 10,000 g for 10 min at 4° C. and re-suspended in lysis buffer (50 mM Tris/HCL pH 7.5, 1 mM PMSF, 25 μg/ml DNAse, 40 mM Mg2SO4). The cells were destroyed using a cell disruptor apparatus at 26 KPsi. The cell lysate was spun down at 35,000 g for 1 hour and the supernatant filtered with a 0.45 μm and a 0.22 μm filter. Purification of expressed PDZ1-2 peptide was performed with first a nickel (II)-charged column (HisTrap™ HP, GE Healthcare, UK) equilibrated with Tris-buffer (Tris/HCl buffer 50 mM, pH 7.5) followed by gel-filtration. For gel-filtration the PDZ1-2 sample was loaded on a Superdex™ 75 HR 10/30 column (GE Healthcare, UK) equilibrated with Tris buffer (20 mM Tris/HCL, pH 7.5) with a constant flow rate at 0.5 mL/min. The relevant fractions were analyzed on a SDS-PAGE gel stained by a standard silver staining protocol. The final purification was analyzed by electrospray ionization liquid chromatography-mass spectrometry (ESI-LC/MS) to get the exact molecular weight and thereby verify the identity of the PDZ1-2 domain. Molar extinction coefficients were found by amino acids analysis (Alphalyse, Odense, Denmark) and thereafter used for measuring protein concentrations. […]\nAn in vitro affinity measurement assay was developed based on the fluorescence polarization principle in order to provide affinity constants (Ki values) between synthesized ligands (e.g. dimeric inhibitors) and PDZ1-2 of PSD-95. […]", "note": "Where no end group is shown, it is not given here."}
{"sequence": "YGRKKRRQRRRKLSSIESDV [Tat-NR2B9c, reference compound]", "values": [{"measurement": "Ki", "result": "4.6 ± 0.3", "unit": "µM"}]}
